# In US11534428B1, “Compositions and methods for delaying the incidence of labor” (ObsEva S.A., priority 2018, dated 2022):
# “Also recorded” adds a separate entry of the source. Read-outs that look alike come from different tables or passages of the source. Bridge positions count the residues as written; N and C are the ends. Square brackets hold non-standard residues; d marks the D form. Peptide text beside a SMILES is read from it. Orn = NCCC[C@H](N)C(=O)O; Mpa = O=C(O)CCS
# What was measured:
# [1] = in vivo
# Experimental: (§1) Both studies enrolled 12 healthy, non-pregnant women of reproductive age. […] Safety and pharmacokinetics were assessed in accordance with European and United States clinical drug-interaction guidelines.
# (§2) Once at steady state, compound (2) was sequentially co-administered with each of the other tocolytic drugs. Subjects were admitted to the study unit on day −1. On day 1, each subject received a single intravenous treatment course of atosiban. […] From days 4 to 9, oral doses of compound (2) (1,000 mg) were administered until reaching steady state. […] Two additional samples were taken at 24 and 48 hours post dose to determine betamethasone concentration, due to the longer half-life of this drug. Pharmacokinetic sampling also occurred before compound (2) administration on days 4, 5, 6, 7, 8 and 9, with an additional 0.25 hour post-dose sample taken on day 9 to determine concentration of compound (2) and its metabolite, compound (1). […] Pharmacokinetic samples were obtained at the times stated above on days 10, 11 and 12, and additional betamethasone samples were obtained 24 and 48 hours post-dose. Subjects were discharged on day 14 and returned for a follow-up visit on day 21.
# (§3) Plasma samples used to determine drug concentration were analyzed by SGS (SGS CEPHAC, France) using a validated methods. Non-compartmental analysis was used to estimate pharmacokinetic parameters and pharmacokinetic modeling was used to access time-dependent pharmacokinetics. […] Other pharmacokinetic parameters were calculated according to standard equations.
# (§4) Pharmacokinetic interaction assessments were performed on logarithmically transformed AUC0-24, AUC0-∞ and Cmax values using ANOVA models with fixed effects for sequence (Part A only), period, and treatment and a random term for subject within sequence. The 90% confidence intervals (90% CI) for the geometric mean ratio of AUC0-24, AUC0-∞ and Cmax were constructed, comparing treatments administered alone versus combination treatments.
# (§5) Differences in tmax were explored by computing the Hodges-Lehmann estimate and the corresponding 90% CI according to Tukey using the approximate method. The Wilcoxon signed rank test was used to test differences in tmax. Unrecorded values were treated as missing.
# [2] = Part A: three-period crossover, single doses of compound (2) and MgSO4 alone and co-administered; conditions: for pharmacokinetic interaction between compound (2) and MgSO4: in vivo
# Experimental: Both studies enrolled 12 healthy, non-pregnant women of reproductive age. […] During the MgSO4 study, women stayed in the clinic from Day −1 to Day 4 of each period. Safety and pharmacokinetics were assessed in accordance with European and United States clinical drug-interaction guidelines. Additional electrocardiogram and neurological examinations were performed assessing safety following MgSO4 administration.
# One cohort of 12 subjects was admitted to the study unit on day −1, period 1. […] On day 1, subjects were crossed over and received the alternate treatment to that in period 1. Subjects were discharged on day 3, and after washout returned on day −1, period 3. […] Outpatient visits occurred on days 4 and 5 followed by a final visit 7 days (±1 day) later. Venous blood samples used in pharmacokinetic analyses were taken pre-dose then 0.25, 0.5, 0.75, 1, 1.5, 2, 3, 4, 6, 8, 12, 16 and 20 hours post dose on day 1 of each treatment period. Single samples for pharmacokinetic analysis were also drawn on days 2, 3, 4 and 5 of each treatment period.
# as §3
# Pharmacokinetic interaction assessments were performed on logarithmically transformed AUC0-24, AUC0-∞ and Cmax values using ANOVA models with fixed effects for sequence (Part A only), period, and treatment and a random term for subject within sequence.
# as §5
# [3] = relative to compound 1; cited from earlier work
# [4] = target: T1, Pept1 transporter protein (Homo sapiens, UniProt P46059); assay: Pept1 transporter dependence of intestinal absorption; assay type: in vitro ADME
# T1 sequence (P46059 1-708): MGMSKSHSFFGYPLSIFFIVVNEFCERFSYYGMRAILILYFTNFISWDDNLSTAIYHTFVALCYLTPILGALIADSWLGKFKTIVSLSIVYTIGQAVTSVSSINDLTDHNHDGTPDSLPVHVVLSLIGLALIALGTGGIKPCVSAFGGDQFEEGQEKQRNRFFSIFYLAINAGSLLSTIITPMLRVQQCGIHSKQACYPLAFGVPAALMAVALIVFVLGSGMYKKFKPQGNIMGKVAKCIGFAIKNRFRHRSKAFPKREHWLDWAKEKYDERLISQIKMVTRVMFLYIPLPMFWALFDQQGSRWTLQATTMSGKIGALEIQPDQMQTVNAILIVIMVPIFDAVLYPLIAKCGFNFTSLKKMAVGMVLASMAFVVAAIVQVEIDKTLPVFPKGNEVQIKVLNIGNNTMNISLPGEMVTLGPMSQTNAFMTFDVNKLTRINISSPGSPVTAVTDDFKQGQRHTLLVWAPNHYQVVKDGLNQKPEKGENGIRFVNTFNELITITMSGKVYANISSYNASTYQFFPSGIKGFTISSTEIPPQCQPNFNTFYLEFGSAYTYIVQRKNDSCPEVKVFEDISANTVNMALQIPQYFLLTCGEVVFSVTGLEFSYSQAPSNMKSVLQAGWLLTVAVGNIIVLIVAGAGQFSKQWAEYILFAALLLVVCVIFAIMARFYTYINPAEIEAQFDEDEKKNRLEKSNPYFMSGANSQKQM
# Excerpt: Compound 2 is de-esterified by ambient esterases in the small intestine and subsequently penetrates the small intestinal epithelium passively. […] Pept1 is known to mediate the absorption of a variety of valinate esters, as described, for example, in Vig et al., Adv. Drug Deliv. Rev. […] Dispos. 41:608-614 (2013). […] Rather, compound 2 and salts thereof are converted in vivo to a form that is readily absorbed in a manner independent of energy and local proton gradient. This beneficial property, coupled with the high aqueous solubility of compound I and salts thereof, fosters a pharmacokinetic profile in which compound 2 and salts thereof readily dissolve in an aqueous environment and are in turn converted into a form capable of transported-independent absorption.
# [5] = clinical drug-interaction study in healthy women, Parts A and B together (pharmacokinetics, safety, tolerability); assay type: in vivo, human; conditions: plasma, oral compound (2)
# Experimental: Healthy women aged between 18 and 45 years with a body mass index of 18.0 to 30.0 kg/m^2 were included in these investigations. Subjects were screened 55 days before the first drug administration and had to be healthy according to medical history, physical examinations, blood pressure tests, electrocardiogram results and laboratory assessment of blood and urine.
# This study was performed at Croydon University Hospital, Croydon, UK. The study protocol (EudraCT: 2016-001958-18) was reviewed and approved by a National Health Service (NHS) Research Ethics Committee (South Central-Berkshire B, UK) and the Medicines and Healthcare products Regulatory Authority (MHRA). The study was conducted according to the ethical principles enshrined in UK law, the Declaration of Helsinki and Good Clinical Practice guidelines. All subjects were informed of the purpose of the study and signed voluntary consent forms before being enrolled.
# Other pharmacokinetic parameters were calculated according to standard equations.
# [6] = crystal form stability and hygroscopicity; assay type: physicochemical
# Excerpt: For example, this compound is readily crystallized using a several distinct experimental procedures. Compound 3 assumes a single, reproducible crystal form upon crystallization from a variety of media and under different ambient conditions. […] For instance, impurities associated with atmospheric water are not readily integrated into the crystalline form of compound 3.
# [7] = Part B: single-sequence crossover, compound (2) at steady state co-administered with atosiban, nifedipine or betamethasone; conditions: for Tmax: female, human, in vivo, iv, 60.75 mg, time of peak plasma concentration
# Experimental: as §1, §2, §3, §4, §5
# [8] = clinical; conditions: female, human, in vivo
# Experimental: as §1, §2, §3, §4, §5
# [9] = co-administration with MgSO4 vs compound (2) alone
# [10] = compound (2) with MgSO4 vs alone
structure (smiles),measurement,setting,value
"COC(=O)C1=C(C)NC(C)=C(C(=O)OC)C1c1ccccc1[N+](=O)[O-] [nifedipine, reference compound]",effect of compound (2) on exposure to the co-administered drug,[1],marked increase
"O=S(=O)([O-])[O-].[Mg+2] [MgSO4, magnesium sulfate, reference compound]",AUCs of total Mg,[2]; after co-administration of compound (2) and MgSO4 vs MgSO4 alone,slightly lower
same,pharmacokinetic interaction between compound (2) and MgSO4,[2],no relevant mutual pharmacokinetic interactions
same,effect of compound (2) on timing or extent of total Mg exposure,[2]; interaction analysis,no effects
"CC(C)[C@H](N)C(=O)OCC[C@H](NC(=O)[C@@H]1SCCN1S(=O)(=O)c1ccc(-c2ccccc2)cc1)c1ccc(F)cc1 [compound (2), (3S)-3-({[(2S)-3-(biphenyl-4-ylsulfonyl)-1,3-thiazolidin-2-yl]carbonyl}-amino)-3-(4-fluorophenyl)propyl L-valinate]",solubility in water and in FeSSIF and FaSSIF media,[3],improvements
same,substrate for the Pept1 transporter protein,[4],not substrates
same,"mean AUC0-∞ of compound (2), times lower than that of compound (1)",[5],771-1163 times
same,"mean peak concentration of compound (2), times lower than that of compound (1)",[5],133-246 times
same,pharmacokinetic interaction between compound (2) and MgSO4,[2],no relevant mutual pharmacokinetic interactions
"C[C@H]1C[C@H]2[C@@H]3CCC4=CC(=O)C=C[C@]4(C)[C@@]3(F)[C@@H](O)C[C@]2(C)[C@@]1(O)C(=O)CO [betamethasone, reference compound]","Cmax and AUCs, co-administration with compound (2) vs drug alone",[1],Slightly increased
same,rise of plasma concentrations,[1],increased more rapidly
same,"tmax, with compound (2) vs drug alone",[1],significantly shorter
"CC(C)[C@H](N)C(=O)OCC[C@H](NC(=O)[C@@H]1SCCN1S(=O)(=O)c1ccc(-c2ccccc2)cc1)c1ccc(F)cc1.Cl [compound (3), (3S)-3-({[(2S)-3-(biphenyl-4-ylsulfonyl)-1,3-thiazolidin-2-yl]carbonyl}-amino)-3-(4-fluorophenyl)propyl L-valinate hydrochloride]",hygroscopicity,[6],low
same,stability of the crystal form,[6]; ambient conditions and elevated relative humidity,extended stability
CCOc1ccc(C[C@H]2NC(=O)CCSSC[C@@H](C(=O)N3CCC[C@H]3C(=O)N[C@@H](CCCN)C(=O)NCC(N)=O)NC(=O)[C@H](CC(N)=O)NC(=O)[C@H]([C@@H](C)O)NC(=O)[C@H]([C@@H](C)CC)NC2=O)cc1 [atosiban] ([Mpa][dY](Et)ITNCP[Orn]G-NH2; disulfide 1-6),"Cmax and AUCs, co-administration with compound (2) vs drug alone",[7]; descriptive,slightly higher
same,Tmax,"[7]; co-administered with compound (2), compound (2) 1,000 mg per day at steady state",0.25 h
same,Tmax,[7]; drug administered alone,1.5 h
same,"tmax, with compound (2) vs drug alone",[7]; paired analysis,no significant tmax difference
"O=C(N[C@@H](CCO)c1ccc(F)cc1)[C@@H]1SCCN1S(=O)(=O)c1ccc(-c2ccccc2)cc1 [compound (1), 3-([1,1′-biphenyl]-4-ylsulfonyl)-N-[1-(4-fluorophenyl)-3-hydroxypropyl]-1,3-thiazolidine-2-carboxamide]",change in compound (1) AUC0-24,"[1]; female, human",15-24%
same,change in compound (1) AUC (AUC0-24),"[1]; female, human",−21%
same,increase in compound (1) AUC,"[1]; female, human",15%
same,increase in compound (1) Cmax,"[1]; female, human",35%
same,increase in compound (1) MRT and t1/2,"[1]; female, human",1.7-2 fold
same,"PE, compound (1) AUC",[1]; human,0.786
same,"PE, compound (1) Cmax",[1]; human,0.719
same,changes in compound (1) tmax,[1]; human,not significant
same,compound (1) CL/F,[1]; human,decrease
same,compound (1) tmax,[1]; human,increase
same,Tmax,[8],3 h
same,compound (1) AUC0-24,[2]; [9],small decrease
same,compound (1) AUC0-t or AUC0-∞,[2]; [9],unchanged
same,compound (1) tmax,[2]; [10],slightly later; also recorded: no effect
same,interaction estimates (linear mixed model),[2]; [10],~1
same,compound (1) Cmax,[2]; during MgSO4 infusion vs compound (2) alone,lower
same,pharmacokinetic interaction between compound (2) and MgSO4,[2],no interaction of clinical significance
same,compound (1) mean t1/2 and MRT,[2]; with vs without MgSO4 infusion,nearly identical
